In PubChem BioAssay (NCI):
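Five compound concentrations were applied to cells in 96-well plates for 48 hours; endpoints were derived by simple linear interpolation of the resulting dose-response curve. GI50: concentration for 50% inhibition of growth. Definition used: TGI = concentration required for complete inhibition of growth.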

Legend:
Assay in all cases: growth of human tumour cells (NCI), 48 h
786-0 renal = test system: 786-0 renal
A498 renal = test system: A498 renal
A549 NSCLC = test system: A549 NSCLC
ACHN renal = test system: ACHN renal
BT-549 breast = test system: BT-549 breast
CAKI-1 renal = test system: CAKI-1 renal
CCRF-CEM leukemia = test system: CCRF-CEM leukemia
COLO 205 colon = test system: COLO 205 colon
DU-145 prostate = test system: DU-145 prostate
HCC-2998 colon = test system: HCC-2998 colon
HCT-116 colon = test system: HCT-116 colon
HCT-15 colon = test system: HCT-15 colon
HL-60(TB) leukemia = test system: HL-60(TB) leukemia
HOP-62 NSCLC = test system: HOP-62 NSCLC
HOP-92 NSCLC = test system: HOP-92 NSCLC
HS 578T breast = test system: HS 578T breast
HT29 colon = test system: HT29 colon
IGROV1 ovarian = test system: IGROV1 ovarian
K-562 leukemia = test system: K-562 leukemia
KM12 colon = test system: KM12 colon
LOX IMVI melanoma = test system: LOX IMVI melanoma
M14 melanoma = test system: M14 melanoma
MALME-3M melanoma = test system: MALME-3M melanoma
MCF7 breast = test system: MCF7 breast
MDA-MB-231 breast = test system: MDA-MB-231 breast
MDA-MB-435 = test system: MDA-MB-435
MOLT-4 leukemia = test system: MOLT-4 leukemia
NCI-H226 lung = test system: NCI-H226 lung
NCI-H23 lung = test system: NCI-H23 lung
NCI-H460 lung = test system: NCI-H460 lung
NCI-H522 lung = test system: NCI-H522 lung
NCI/ADR-RES ovarian = test system: NCI/ADR-RES ovarian
OVCAR-3 ovarian = test system: OVCAR-3 ovarian
OVCAR-4 ovarian = test system: OVCAR-4 ovarian
OVCAR-5 ovarian = test system: OVCAR-5 ovarian
OVCAR-8 ovarian = test system: OVCAR-8 ovarian
PC-3 prostate = test system: PC-3 prostate
RPMI-8226 leukemia = test system: RPMI-8226 leukemia
RXF 393 renal = test system: RXF 393 renal
SF-268 CNS = test system: SF-268 CNS
SF-295 CNS = test system: SF-295 CNS
SF-539 CNS = test system: SF-539 CNS
SK-MEL-2 melanoma = test system: SK-MEL-2 melanoma
SK-MEL-28 melanoma = test system: SK-MEL-28 melanoma
SK-MEL-5 melanoma = test system: SK-MEL-5 melanoma
SK-OV-3 ovarian = test system: SK-OV-3 ovarian
SN12C renal = test system: SN12C renal
SNB-19 CNS = test system: SNB-19 CNS
SNB-75 CNS = test system: SNB-75 CNS
SR leukemia = test system: SR leukemia
SW-620 colon = test system: SW-620 colon
T-47D breast = test system: T-47D breast
TK-10 renal = test system: TK-10 renal
U251 CNS = test system: U251 CNS
UACC-257 melanoma = test system: UACC-257 melanoma
UACC-62 melanoma = test system: UACC-62 melanoma
UO-31 renal = test system: UO-31 renal

For `CC(=O)N[C@@H](Cc1ccc(OP(=O)(O)O)cc1)C(=O)N[C@H]1CCC(=O)N2CCC[C@@H](C(=O)Nc3cccc4ccccc34)N2C1=O`, the GI50 (786-0 renal) was > 25 µM, the TGI (786-0 renal) was > 25 µM and the GI50 (A498 renal) was > 25 µM. The TGI (A498 renal) was > 25 µM, the GI50 (A549 NSCLC) was > 25 µM and the TGI (A549 NSCLC) was > 25 µM. The GI50 (ACHN renal) was > 25 µM, the TGI (ACHN renal) was > 25 µM and the GI50 (BT-549 breast) was > 25 µM. The TGI (BT-549 breast) was > 25 µM, the GI50 (CAKI-1 renal) was > 25 µM and the TGI (CAKI-1 renal) was > 25 µM. The GI50 (CCRF-CEM leukemia) was > 25 µM, the TGI (CCRF-CEM leukemia) was > 25 µM and the GI50 (COLO 205 colon) was > 25 µM. The TGI (COLO 205 colon) was > 25 µM, the GI50 (DU-145 prostate) was > 25 µM and the TGI (DU-145 prostate) was > 25 µM. For the same molecule, the GI50 (HCC-2998 colon) was > 25 µM, the TGI (HCC-2998 colon) was > 25 µM and the GI50 (HCT-116 colon) was > 25 µM. The TGI (HCT-116 colon) was > 25 µM, the GI50 (HCT-15 colon) was > 25 µM and the TGI (HCT-15 colon) was > 25 µM. The GI50 (HL-60(TB) leukemia) was > 25 µM, the TGI (HL-60(TB) leukemia) was > 25 µM and the GI50 (HOP-62 NSCLC) was > 25 µM. For the same molecule, the TGI (HOP-62 NSCLC) was > 25 µM, the GI50 (HOP-92 NSCLC) was > 23.9 µM and the TGI (HOP-92 NSCLC) was > 25 µM. The GI50 (HS 578T breast) was > 25 µM, the TGI (HS 578T breast) was > 25 µM and the GI50 (HT29 colon) was > 25 µM. The TGI (HT29 colon) was > 25 µM, the GI50 (IGROV1 ovarian) was > 25 µM and the TGI (IGROV1 ovarian) was > 25 µM. The GI50 (K-562 leukemia) was > 25 µM, the TGI (K-562 leukemia) was > 25 µM and the GI50 (KM12 colon) was > 25 µM. For the same molecule, the TGI (KM12 colon) was > 25 µM, the GI50 (LOX IMVI melanoma) was > 25 µM and the TGI (LOX IMVI melanoma) was > 25 µM. For the same molecule, the GI50 (M14 melanoma) was > 25 µM, the TGI (M14 melanoma) was > 25 µM and the GI50 (MALME-3M melanoma) was > 25 µM. For the same molecule, the TGI (MALME-3M melanoma) was > 25 µM, the GI50 (MCF7 breast) was > 25 µM and the TGI (MCF7 breast) was > 25 µM. The GI50 (MDA-MB-231 breast) was > 25 µM, the TGI (MDA-MB-231 breast) was > 25 µM and the GI50 (MDA-MB-435) was > 25 µM. For the same molecule, the TGI (MDA-MB-435) was > 25 µM, the GI50 (MOLT-4 leukemia) was > 25 µM and the TGI (MOLT-4 leukemia) was > 25 µM. For the same molecule, the GI50 (NCI-H226 lung) was > 25 µM, the TGI (NCI-H226 lung) was > 25 µM and the GI50 (NCI-H23 lung) was > 25 µM. For the same molecule, the TGI (NCI-H23 lung) was > 25 µM, the GI50 (NCI-H460 lung) was > 25 µM and the TGI (NCI-H460 lung) was > 25 µM. For the same molecule, the GI50 (NCI-H522 lung) was > 25 µM, the TGI (NCI-H522 lung) was > 25 µM and the GI50 (NCI/ADR-RES ovarian) was > 25 µM. For the same molecule, the TGI (NCI/ADR-RES ovarian) was > 25 µM, the GI50 (OVCAR-3 ovarian) was > 25 µM and the TGI (OVCAR-3 ovarian) was > 25 µM. The GI50 (OVCAR-4 ovarian) was > 25 µM, the TGI (OVCAR-4 ovarian) was > 25 µM and the GI50 (OVCAR-5 ovarian) was > 25 µM. For the same molecule, the TGI (OVCAR-5 ovarian) was > 25 µM, the GI50 (OVCAR-8 ovarian) was > 25 µM and the TGI (OVCAR-8 ovarian) was > 25 µM. The GI50 (PC-3 prostate) was > 25 µM, the TGI (PC-3 prostate) was > 25 µM and the GI50 (RPMI-8226 leukemia) was > 25 µM. For the same molecule, the TGI (RPMI-8226 leukemia) was > 25 µM, the GI50 (RXF 393 renal) was > 25 µM and the TGI (RXF 393 renal) was > 25 µM. For the same molecule, the GI50 (SF-268 CNS) was > 25 µM, the TGI (SF-268 CNS) was > 25 µM and the GI50 (SF-295 CNS) was > 25 µM. The TGI (SF-295 CNS) was > 25 µM, the GI50 (SF-539 CNS) was > 25 µM and the TGI (SF-539 CNS) was > 25 µM. For the same molecule, the GI50 (SK-MEL-2 melanoma) was > 25 µM, the TGI (SK-MEL-2 melanoma) was > 25 µM and the GI50 (SK-MEL-28 melanoma) was > 25 µM. The TGI (SK-MEL-28 melanoma) was > 25 µM, the GI50 (SK-MEL-5 melanoma) was > 25 µM and the TGI (SK-MEL-5 melanoma) was > 25 µM. The GI50 (SK-OV-3 ovarian) was > 25 µM, the TGI (SK-OV-3 ovarian) was > 25 µM and the GI50 (SN12C renal) was > 25 µM. The TGI (SN12C renal) was > 25 µM, the GI50 (SNB-19 CNS) was > 25 µM and the TGI (SNB-19 CNS) was > 25 µM. For the same molecule, the GI50 (SNB-75 CNS) was > 19.8 µM, the TGI (SNB-75 CNS) was > 25 µM and the GI50 (SR leukemia) was > 25 µM. The TGI (SR leukemia) was > 25 µM, the GI50 (SW-620 colon) was > 25 µM and the TGI (SW-620 colon) was > 25 µM. The GI50 (T-47D breast) was > 25 µM, the TGI (T-47D breast) was > 25 µM and the GI50 (TK-10 renal) was > 25 µM. For the same molecule, the TGI (TK-10 renal) was > 25 µM, the GI50 (U251 CNS) was > 25 µM and the TGI (U251 CNS) was > 25 µM. For the same molecule, the GI50 (UACC-257 melanoma) was > 25 µM, the TGI (UACC-257 melanoma) was > 25 µM and the GI50 (UACC-62 melanoma) was > 25 µM. The TGI (UACC-62 melanoma) was > 25 µM, the GI50 (UO-31 renal) was > 21.4 µM and the TGI (UO-31 renal) was > 25 µM.
